Reference: patent publication US20070117770A1, “Human ribosomal DNA (rDNA) and ribosomal RNA (rRNA) nucleic acids and uses thereof” (Cylene Pharmaceuticals, Inc., priority 2005, published 2007)
pIC50, pKd: −log10 of the molar value. Values belong to the compound of their own block, whether it stands above or below them. *1 amine or outer side, *2 acyl side, *3 side chain or, on linkers, in order; H or OH if unused. Where a SMILES comes first, the peptide text is derived from it. Bridges are numbered along the chain shown (N, C = ends). Roman numbers before positions name the chains, in order. [ ]: non-standard residue; d: D form. Actinocin(9to1) = Cc1c2oc3c(C)ccc(C(=O)[*:1])c3nc-2c(C(=O)[*:2])c(N)c1=O; NMeV = CN[C@H](C(=O)O)C(C)C; Sar = CNCC(=O)O

Assays:
nucleolin [1] = biological target: T1, nucleolin (Homo sapiens, UniProt P19338); experiment: EMSA, relative affinity of nucleic acid ligands for nucleolin; type: binding; design: key: +: weakest nucleolin affinity; ++++: strongest nucleolin affinity
T1 construct: without the N-terminal acidic stretches domain
Description: (§1) The following assays assessed effects of compounds on interactions between nucleolin and nucleic acid ligands capable of forming quadruplex (QP) and hairpin (HP) secondary structures. Nucleic acid ligands tested were a cMyc QP DNA having nucleotide sequence 5′-[…]-3′ (SEQ ID NO: 176) and a HP pre-rRNA region to which nucleolin binds, having the sequence 5′-[…]-3′ (SEQ ID NO: 177). In the assays, recombinant nucleolin (˜250 nM), which was fused to maltose binding protein and had the sequence under accession number NM_005381 without the N-terminal acidic stretches domain, was incubated with each of the two ^32P-labeled nucleic acid ligands (10 or 250 nM). Nucleolin and the nucleic acid ligand were incubated in the presence or absence of a test compound of Formula A-1, B-1, C-6 or C-7 in an incubation buffer (12.5 mM Tris, pH 7.6, 60 mM KCl, 1 mM MgCl2, 0.1 mM EDTA, 1 mM DTT, 5% glycerol, 0.1 mg/ml BSA) for 30 minutes at room temperature. Structures for A-1 and B-1 are shown above and structures for C-6 and C-7 are shown hereafter: [drawing 17] The resulting complexes were separated on a 6% DNA retardation gel using 0.5× TBE with 20 mM KCl as a running buffer (i.e., electrophoresis mobility shift assay (EMSA)).
The assay also was conducted using nucleic acid ligands derived from human ribosomal DNA. Sequences of these nucleic acids are shown in the preceding example. […] A “+” represents the weakest nucleolin affinity and least interference by compound A-1 and a “++++” represents the strongest nucleolin affinity and greatest interference by compound A-1.

nucleolin [2] = biological target: T1, nucleolin; experiment: Filter-binding assay of 32P-labeled quadruplexes and Nucleolin; conditions: for pKd: 0.2 nM 32P-labeled quadruplex, read-out: Kd, apparent dissociation constant of nucleolin protein and the nucleic acid ligand
Description: The assay also was conducted in a filter-binding format. […] The protein-quadruplex mixtures were incubated for 30 min at ambient temperature and filtered through mixed cellulose ester membrane filters (Millipore) with gentle suction. The filters were washed twice with […] of binding buffer, dried and OptiPhase ‘SuperMix’ scintillation cocktail (Perkin Elmer) was added to the wells. Radioactivity was assayed with MicroBeta scintillation counter (Perkin Elmer). Binding curves were constructed and apparent Kd's and Bmax's for the complexes were calculated using the GraphPad Prizm software program (GraphPad Software). In the following table, the nucleic acid ligand is designated in the first column using the nomenclature described herein; the second column provides the nucleotide sequence of the nucleic acid ligand; the third column is the conformation of the ligand as determined by circular dichroism (M is mixed, P is parallel, A is antiparallel, C is complex, SS is single-stranded and ND is not determined); the fourth column is the dissociation constant determined by the filter binding assay of nucleolin protein and the nucleic acid ligand; the fifth column is a Bmax constant determined by the filter binding assay, which is the percent of active nucleic acid ligand in each assay; and the sixth column presents the concentration of Compound A-1 required to dissociate half of the complexed nucleic acid ligand and nucleolin protein, as determined by the EMSA assay described above.

nucleolin/cMyc QP DNA = biological target: T2, nucleolin/cMyc QP DNA (Homo sapiens, UniProt P19338); experiment: EMSA, nucleolin/QP ligand interaction; type: binding; conditions: nucleolin ~250 nM, 32P-labeled ligand 10 or 250 nM, 30 minutes (FIG. 1, FIG. 2)
T2 construct: without the N-terminal acidic stretches domain
Description: as §1

[3] = biological target: T3, nucleolin/HP pre-rRNA region (Homo sapiens, UniProt P19338); experiment: EMSA, nucleolin/HP ligand interaction; type: binding; conditions: nucleolin ~250 nM, 32P-labeled ligand 10 or 250 nM, 30 minutes (FIG. 1, FIG. 2)
T3 construct: without the N-terminal acidic stretches domain
Description: as §1

[4] = test system: 28S rRNA and 18S rRNA (total RNA from HCT116 cells); experiment: Human rRNA interaction screening assay (agarose gel electrophoresis mobility shift); type: binding; conditions: 1 ug total RNA; 10 uM compound or 0.5 ug/mL PI, 15 min, room temperature
Description: RNA was isolated from HCT116 cells (RNeasy kit, QIAGEN) and contacted in vitro with each compound from a library of compounds. In representative assays, 1 ug of total RNA from HCT116 cells was incubated with 0.5 ug/mL of propidium iodide (PI), 10 uM compound A-1 or another compound in the library in a volume of 10 uL for 15 min at room temperature, followed by agarose gel electrophoresis. Fluorescence of the compounds was visualized on each gel. […] Compounds C-1, C-2, C-3, C-4 and C-5 have the following general formula: [drawing 15] [drawing 16]

[5] = test system: 28S and 18S rRNA (total RNA from HCT116 cells); experiment: Competition for rRNA binding with compound A-1 (agarose gel electrophoresis); design: species or system human; conditions: 10 uM compound A-1; increasing amount of competitor (Actinomycin D 10, 100, 200 uM; pUC18 0.25-4 ug)
Description: Compounds that bound to the 28S rRNA were subjected to competition for rRNA binding with Actinomycin D, Se2SAP (FIG. 3A of US20040110820 published on Jun. 10, 2004) and double-stranded DNA (dsDNA) in confirmatory studies. In such assays, 1 ug of total RNA from HCT116 cells was incubated with 10 uM compound A-1 in a volume of 10 uL in the absence/ presence of (a) increasing amount of Actinomycin D (10, 100 and 200 uM) for 15 min at room temperature, (b) increasing amount of Se2SAP (see figure) for 30 min at room temperature, or (c) increasing amount of pUC18 (0.25, 0.5, 1, 2 and 4 ug) for 30 min at room temperature, followed by agarose gel electrophoresis.

[6] = biological target: T4, nucleolin/nucleic acid ligand (Homo sapiens, UniProt P19338); experiment: EMSA, interference with nucleolin/nucleic acid ligand interactions (ligands derived from human ribosomal DNA); type: binding
T4 construct: without the N-terminal acidic stretches domain
Description: as §1
The assay also was conducted using nucleic acid ligands derived from human ribosomal DNA. Sequences of these nucleic acids are shown in the preceding example. […]

[7] = test system: cMYC RNA synthesis, HCT-116; experiment: PCR control assay of C-myc transcription; type: cell-based; conditions: for pIC50: Homo sapiens, read-out: QPCRMYC IC50_HCT-116
Description: A control assay that detected effects of the compounds on C-myc transcription also was conducted using a primer/probe set purchased from ABI (TaqMan Gene Expression Assay with assay ID: Hs99999003_m1). The following assay protocol was utilized:
(§2) Mix • 1 ug RNA • 2.5 ul 10× Taq Man buffer • 5.5 ul 25 mM MgCl2 • 5 ul of a mix of dNTP (500 uM each) • 1.2 ul random hexamer primer (2.5 uM stock) • 0.5 ul RNase inhibitor (0.4 units/ul) • 0.6 ul Reverse Transcriptase (1.2 units/ul) • bring to 25 ul total volume with water
(§3) Mix • 5 ul Reverse Transcriptase reaction product • 12.5 ul 2×PCR mix • 1 uM forward primer • 1 uM reverse primer • 0.5 uM Taq Man probe • 500 nM Rox • Adjust to 25 ul final volume with water
(§4) PCR cycles • 95 degrees C. 1 minute • 40 cycles of • 95 degrees C. 15 seconds • 60 degrees C. 1 minute.
(§5) Fluorescence of digested label was detected and quantified. […] The effect of other compounds on rRNA synthesis also were assessed in the assay, and provided in the table hereafter are IC50 values of selected compounds pertaining to rRNA synthesis and cMYC RNA synthesis.

rRNA synthesis, HCT-116 = experiment: PCR assay of rRNA synthesis from 45S rDNA (5' ETS probe); type: cell-based; conditions: Homo sapiens; rRNA synthesis, HCT-116; read-out: QPCRrDNA IC50_HCT-116
Description: Assays were conducted to determine the effects of compounds on rRNA synthesis from 45S rDNA. In particular, compound A-1 at various concentrations was incubated with cells and tested for an effect on rRNA synthesis after a two hour or four hour incubation with the compound. Synthesized rRNA was quantified by a polymerase chain reaction (PCR) assay. A primer/probe set was designed using Primer Express software and synthesized by Applied Biosystems. The 5′ ETS Probe utilized had the following sequence (@ its 3′ end): 6FAM-TTG ATC CTG CCA GTA GC-MGBNFQ (SEQ ID NO:227). The primer sequences were as follows:
as §2, §3, §4, §5

T1 sequence (P19338 284-710 limits assumed): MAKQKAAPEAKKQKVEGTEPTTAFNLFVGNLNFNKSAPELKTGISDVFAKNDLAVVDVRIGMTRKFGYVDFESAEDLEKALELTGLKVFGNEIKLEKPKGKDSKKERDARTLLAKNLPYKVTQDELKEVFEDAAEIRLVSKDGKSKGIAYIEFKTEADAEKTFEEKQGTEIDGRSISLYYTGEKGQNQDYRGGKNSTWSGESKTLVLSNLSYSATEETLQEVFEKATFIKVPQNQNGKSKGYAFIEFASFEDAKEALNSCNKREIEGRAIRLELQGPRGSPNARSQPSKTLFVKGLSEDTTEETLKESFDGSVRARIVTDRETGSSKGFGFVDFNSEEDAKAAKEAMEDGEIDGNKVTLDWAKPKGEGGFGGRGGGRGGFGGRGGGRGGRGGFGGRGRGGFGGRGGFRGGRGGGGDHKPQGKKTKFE
T3 sequence (P19338 284-710 limits assumed): as above
T2 sequence (P19338 284-710 limits assumed): as above
T4 sequence (P19338 284-710 limits assumed): as above

Compound: GGGAGGGGCACGGGCCGGGGGCGGGACGGG (listed as DNA, chemistry not given here; listed as Homo sapiens) [Compound 7733T]
Affinity for Nucleolin (relative) (nucleolin [1]): +
Bmax, percent of active nucleic acid ligand (nucleolin [2]): 53%
pKd (nucleolin [2]): 9.10

Compound: GGGGGCGGGCTCCGGCGGGTGCGGGGGTGGGCGGGCGGGGCCGGGGGTGGGGTCGGCGGGGG [Compound 8511NT]
Affinity for Nucleolin (relative) (nucleolin [1]): ++++
Bmax, percent of active nucleic acid ligand (nucleolin [2]): 100%
pKd (nucleolin [2]): 9.22

Compound: CC(=O)N1CCN(c2c(F)cc3c(=O)c(C(=O)NCCC4CCCN4C)cn4c3c2Oc2cc3ccccc3cc2-4)CC1 (stereo not drawn) [Compound C-7]
interference with the nucleolin/QP ligand interaction (nucleolin/cMyc QP DNA): interfered with the nucleolin/QP ligand interaction
interference with the nucleolin/HP ligand interaction [3]: did not significantly interfere with the nucleolin/HP ligand interaction

Compound: CN1CCCC1CCNC(=O)c1cn2c3c(c(N4CCC(c5ccccn5)C4)c(F)cc3c1=O)Oc1cc3ccccc3cc1-2 (stereo not drawn) [Compound C-4]
binding to 28S versus 18S rRNA [4]: less selectivity for 28S over 18S

Compound: CC(=O)N1CCN(c2c(F)cc3c(=O)c(C(=O)NCCN4CCCC4)cn4c3c2Oc2cc(Cl)ccc2-4)CC1 [Compound C-6]
interference with the nucleolin/QP ligand interaction (nucleolin/cMyc QP DNA): interfered with the nucleolin/QP ligand interaction
interference with the nucleolin/HP ligand interaction [3]: did not significantly interfere with the nucleolin/HP ligand interaction

Compound: CC[N+](C)(CC)CCC[n+]1c(-c2ccccc2)c2cc(N)ccc2c2ccc(N)cc21.[I-].[I-] [PI, propidium iodide, reference compound]
binding to 28S versus 18S rRNA [4]: did not discriminate in its binding to 18S and 28S rRNA

Compound: CN1CCCC1CCNC(=O)c1cn2c3c(c(N4CCC(c5ccccn5)C4)c(F)cc3c1=O)Oc1cc3ccccc3cc1-2 (stereo not drawn) [Compound C-2]
binding to 28S versus 18S rRNA [4]: selective binding to 28S over 18S

Compound: CN1CCCC1CCNC(=O)c1cn2c3c(c(N4CCC(c5ccccn5)C4)c(F)cc3c1=O)Oc1cc3ccccc3cc1-2 (stereo not drawn) [Compound C-1]
binding to 28S versus 18S rRNA [4]: selective binding to 28S over 18S

Compound: GGGGCGCGGCGGGGGGAGAAGGGTCGGGGCGGCAGGGG (listed as DNA, chemistry not given here; listed as Homo sapiens) [Compound 11028NT]
Affinity for Nucleolin (relative) (nucleolin [1]): +
Bmax, percent of active nucleic acid ligand (nucleolin [2]): 32%
pKd (nucleolin [2]): 8.57

Compound: Cc1c2oc3c(C)ccc(C(=O)N[C@@H]4C(=O)N[C@H](C(C)C)C(=O)N5CCC[C@H]5C(=O)N(C)CC(=O)N(C)[C@@H](C(C)C)C(=O)O[C@@H]4C)c3nc-2c(C(=O)N[C@@H]2C(=O)N[C@H](C(C)C)C(=O)N3CCC[C@H]3C(=O)N(C)CC(=O)N(C)[C@@H](C(C)C)C(=O)O[C@@H]2C)c(N)c1=O [Actinomycin D, reference compound] (I: T[dV]P[Sar][NMeV] / II: T[dV]P[Sar][NMeV]; ester I:1-I:C, II:1-II:C; linker I:N-II:N via Actinocin(9to1))
competition with compound A-1 for rRNA binding [5]: failed to compete with compound A-1 for rRNA
interference with nucleolin/nucleic acid ligand interactions [6]: but not Actinomycin D, interfered with nucleolin/nucleic acid ligand interactions

Compound: GGGAGGGCGCGCGGGTCGGGG (listed as DNA, chemistry not given here; listed as Homo sapiens) [Compound 8749NT]
Affinity for Nucleolin (relative) (nucleolin [1]): +
Bmax, percent of active nucleic acid ligand (nucleolin [2]): 13%
pKd (nucleolin [2]): 8.72

pIC50 [7]: 7.00
pIC50 (rRNA synthesis, HCT-116): 7.30
Compound: CC(C)N1CCN(c2c(F)cc3c(=O)c(C(=O)NCCN4CCCC4)cn4c3c2Oc2cc(Cl)ccc2-4)CC1 [Compound 2]

QPCRMYC IC50_HCT-116 [7]: INACTIVE
pIC50 (rRNA synthesis, HCT-116): 7.30
Compound: CC(C)N1CCN(c2nc3c(cc2F)c(=O)c(C(=O)NCCC2CCCN2C)c2n(C)c4ccc(C#N)cc4n32)CC1 (stereo not drawn) [Compound 3]

pIC50 [7]: 6.52
pIC50 (rRNA synthesis, HCT-116): 7.10
Compound: O=C(NCCN1CCOCC1)c1c(=O)c2cnc(N3CCNCC3)nc2n2c1sc1ccccc12 [Compound 7]

Compound: CN1CCCC1CCNC(=O)c1cn2c3c(c(N4CCC(c5ccccn5)C4)c(F)cc3c1=O)Oc1cc3ccccc3cc1-2 (stereo not drawn) [Compound C-3]
binding to 28S versus 18S rRNA [4]: less selectivity for 28S over 18S

Compound: GGGTCGGGGGCGGTGGTGGGCCCGCGGGGG (listed as DNA, chemistry not given here; listed as Homo sapiens) [Compound 6183NT]
Affinity for Nucleolin (relative) (nucleolin [1]): +
Bmax, percent of active nucleic acid ligand (nucleolin [2]): 26%
pKd (nucleolin [2]): 8.66

Compound: CN1CCCC1CCNC(=O)c1cn2c3c(c(N4CCC(c5ccccn5)C4)c(F)cc3c1=O)Oc1cc3ccccc3cc1-2 (stereo not drawn) [Compound C-5]
binding to 28S versus 18S rRNA [4]: specific binding to 28S over 18S

pIC50 [7]: 6.52
pIC50 (rRNA synthesis, HCT-116): 7.30
Compound: O=C(NCCN1CCCC1)c1cn2c3c(c(N4CCOCC4)c(F)cc3c1=O)Oc1cc(Cl)ccc1-2 [Compound 5]

pIC50 [7]: 6.52
pIC50 (rRNA synthesis, HCT-116): 7.30
Compound: CC(=O)N1CCN(c2ccc3c(=O)n(CCCN4CCCC4)c4nc5ccccc5n4c3n2)CC1 [Compound 8]

pIC50 [7]: 6.52
pIC50 (rRNA synthesis, HCT-116): 7.10
Compound: CC(=O)N1CCN(c2ccc3c(=O)c(C(=O)NCCN4CCCC4)c4sc5ccccc5n4c3n2)CC1 [Compound 6]
